From patent US11179430B2, “Extracts from mother-of-thyme and the use i'hereof” (Finzelberg GmbH & Co. KG, priority 2012, dated 2021) come the findings set out here.

The test system of this test is TNBS-induced colitis in Wistar rats. The test can be described thus: In vivo TNBS test model (colitis in rats). The procedure:
Female Wistar rats (200-210 g) were kept in Makrolon cages in air-conditioned animal quarters with 12 hours light-dark cycle, fed standard rodent food and water ad libitum throughout the experiment. The rats are randomly assigned to six groups (n=10). Two groups (healthy and sick controls) obtain 1 ml of the administration medium orally, and the test groups obtain either 100 mg/kg BW of a wild thyme extract formulation according to Example 4, or 70 mg/kg BW of a wild thyme extract formulation according to Example 3, or 30 mg/kg BW of the prebiotic Nutriose, or 100 mg/kg BW sulfasalazine (SAZ) in the reference group. All test substances are administered once a day as a solution or suspension through a gastric tube for a period of 7 days. The administration of the test substances starts at the same day as the colitis induction. For this purpose, the rats are fasted over night, and then a colitis is induced in both the sick control group and the treatment groups with TNBS as follows: During a halothane anesthesia, a solution (10 mg of TNBS dissolved in 0.25 ml of ethanol 50% v/v) is injected from a Teflon cannula through the anus 8 cm deep into the intestine. The rats of the healthy control group are administered 0.25 ml of a PBS solution instead of the TNBS solution. The body weight, the water and food intake and the stool consistency are recorded daily during the testing period. One week after the start of the colitis induction, all the rats are sacrificed by an overdose of halothane, and the intestine is removed for evaluating the intestinal damage. The intestinal segment is cleaned from fat and mesenterium, and transferred to a filter paper. Each specimen is weighed, and its length is measured under a constant load (2 g), and the weight-to-length ratio is determined therefrom. Independently of the treatment employed, the intestine is evaluated macroscopically for visible damage on a scale of from 0 to 10 by two observers by means of previously defined criteria, which take the extension and severity of the damage into account. […]

SMILES strings stand for the structures.

`O=C(O)c1cc(/N=N/c2ccc(S(=O)(=O)Nc3ccccn3)cc2)ccc1O` [Sulfasalazine, sulfasalazine]: the IL-6 (100 mg/kg oral once a day, 7 days, colitic control 281.8 ± 26.8) was 222.0 ± 16.1 ng/g. This compound displayed an MPO (100 mg/kg oral once a day, 7 days, colitic control 8969.6 ± 1402.0) of 5591.5 ± 537.0 mU/g. Besides, the “significant influence on the parameters of Table 3, in words” value (doses as in Table 3, vs. colitic control) is “could not show significant improvements in all parameters”.
